# In patent publication US10202361B2, “Pyridazinones as herbicides” (E I DU PONT DE NEMOURS AND COMPANY, priority 2014, dated 2019):
# Read-outs that look alike come from different tables or passages of the source.
# Legend:
# Test in all cases: Test C pre-/postemergence greenhouse herbicide test
# Format in all cases: in vivo
# [1] = system: barnyardgrass (Echinochloa crus-galli); conditions: Barnyardgrass
# Procedure, shortened: (§1)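 Visual ratings, 0 = no effect, 100 = complete control, vs untreated controls at 13–15 d. Pre: seeds in loam/sand. Post: 2–18 cm plants (1–4 leaf), peat/vermiculite mix. Surfactant-containing solvent formulation; greenhouse.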
# [2] = system: blackgrass (Alopecurus myosuroides); conditions: Alopecurus myosuroides, Blackgrass, read-out: Plant response rating; for pest or weed control at 31 g/ha: 31 g ai/ha; for pest or weed control at 62 g/ha: 62 g ai/ha; for pest or weed control at 125 g/ha: 125 g ai/ha; for pest or weed control at 250 g/ha: 250 g ai/ha
# Procedure, shortened: as §1
# [3] = system: foxtail, giant (giant foxtail, Setaria faberii); conditions: Setaria faberi, Foxtail, Giant, read-out: Plant response rating; for pest or weed control at 31 g/ha: 31 g ai/ha; for pest or weed control at 62 g/ha: 62 g ai/ha; for pest or weed control at 125 g/ha: 125 g ai/ha; for pest or weed control at 250 g/ha: 250 g ai/ha
# Procedure, shortened: as §1
# [4] = system: morningglory (Ipomoea coccinea); conditions: Morningglory
# Procedure, shortened: as §1
# soybean (Glycine max) = conditions: Glycine max, Soybean, read-out: Plant response rating; for plant injury at 62 g/ha: 62 g ai/ha; for plant injury at 125 g/ha: 125 g ai/ha; for plant injury at 250 g/ha: 250 g ai/ha
# Procedure, shortened: as §1
# [5] = system: velvetleaf (Abutilon theophrasti); conditions: Abutilon theophrasti, Velvetleaf, read-out: Plant response rating; for pest or weed control at 62 g/ha: 62 g ai/ha; for pest or weed control at 125 g/ha: 125 g ai/ha; for pest or weed control at 250 g/ha: 250 g ai/ha
# Procedure, shortened: as §1
# [6] = system: waterhemp (common waterhemp, Amaranthus rudis); conditions: Waterhemp
# Procedure, shortened: as §1
# [7] = system: wheat (winter wheat, Triticum aestivum); conditions: Triticum aestivum, Wheat, read-out: Plant response rating; for plant injury at 62 g/ha: 62 g ai/ha; for plant injury at 125 g/ha: 125 g ai/ha; for plant injury at 250 g/ha: 250 g ai/ha
# Procedure, shortened: as §1
# [8] = post-emergence, Postemergence, 31 g ai/ha
smiles,measurement,setting,value
"Cc1cc(=O)n(-c2ccc(F)cc2)nc1Cc1ccnc(C(F)(F)F)c1 [Compound 1, 2-(4-fluorophenyl)-5-methyl-6-[[2-(trifluoromethyl)-4-pyridinyl]methyl]-3(2H)-pyridazinone]",Plant response rating,"[1]; Postemergence, 31 g ai/ha",10
same,Plant response rating,"[1]; Postemergence, 62 g ai/ha",10
same,Plant response rating,"[1]; Postemergence, 125 g ai/ha",10
same,Plant response rating,"[1]; Postemergence, 250 g ai/ha",10
same,Plant response rating,"[1]; Preemergence, 31 g ai/ha",35
same,Plant response rating,"[1]; Preemergence, 62 g ai/ha",85
same,Plant response rating,"[1]; Preemergence, 125 g ai/ha",100
same,Plant response rating,"[1]; Preemergence, 250 g ai/ha",100
same,pest or weed control at 31 g/ha,"[2]; post-emergence, Postemergence",5%
same,pest or weed control at 62 g/ha,"[2]; post-emergence, Postemergence",5%
same,pest or weed control at 125 g/ha,"[2]; post-emergence, Postemergence",5%
same,pest or weed control at 250 g/ha,"[2]; post-emergence, Postemergence",5%
same,pest or weed control at 31 g/ha,"[2]; pre-emergence, Preemergence",30%
same,pest or weed control at 62 g/ha,"[2]; pre-emergence, Preemergence",30%
same,pest or weed control at 125 g/ha,"[2]; pre-emergence, Preemergence",90%
same,pest or weed control at 250 g/ha,"[2]; pre-emergence, Preemergence",90%
same,pest or weed control at 31 g/ha,"[3]; post-emergence, Postemergence",10%
same,pest or weed control at 62 g/ha,"[3]; post-emergence, Postemergence",10%
same,pest or weed control at 125 g/ha,"[3]; post-emergence, Postemergence",15%
same,pest or weed control at 250 g/ha,"[3]; post-emergence, Postemergence",20%
same,pest or weed control at 31 g/ha,"[3]; pre-emergence, Preemergence",100%
same,pest or weed control at 62 g/ha,"[3]; pre-emergence, Preemergence",100%
same,pest or weed control at 125 g/ha,"[3]; pre-emergence, Preemergence",100%
same,pest or weed control at 250 g/ha,"[3]; pre-emergence, Preemergence",100%
same,Plant response rating,"[4]; Postemergence, 31 g ai/ha",60
same,Plant response rating,"[4]; Postemergence, 125 g ai/ha",70
same,Plant response rating,"[4]; Postemergence, 250 g ai/ha",70
same,Plant response rating,"[4]; Preemergence, 31 g ai/ha",50
same,Plant response rating,"[4]; Preemergence, 62 g ai/ha",90
same,Plant response rating,"[4]; Preemergence, 125 g ai/ha",100
same,Plant response rating,"[4]; Preemergence, 250 g ai/ha",100
same,plant injury at 31 g/ha,soybean (Glycine max); [8],35%
same,plant injury at 62 g/ha,"soybean (Glycine max); post-emergence, Postemergence",40%
same,plant injury at 125 g/ha,"soybean (Glycine max); post-emergence, Postemergence",50%
same,plant injury at 250 g/ha,"soybean (Glycine max); post-emergence, Postemergence",70%
same,plant injury at 62 g/ha,"soybean (Glycine max); pre-emergence, Preemergence",60%
same,plant injury at 125 g/ha,"soybean (Glycine max); pre-emergence, Preemergence",95%
same,plant injury at 250 g/ha,"soybean (Glycine max); pre-emergence, Preemergence",98%
same,pest or weed control at 31 g/ha,[5]; [8],10%
same,pest or weed control at 62 g/ha,"[5]; post-emergence, Postemergence",20%
same,pest or weed control at 125 g/ha,"[5]; post-emergence, Postemergence",20%
same,pest or weed control at 250 g/ha,"[5]; post-emergence, Postemergence",30%
same,pest or weed control at 62 g/ha,"[5]; pre-emergence, Preemergence",35%
same,pest or weed control at 125 g/ha,"[5]; pre-emergence, Preemergence",40%
same,pest or weed control at 250 g/ha,"[5]; pre-emergence, Preemergence",100%
same,Plant response rating,"[6]; Postemergence, 31 g ai/ha",50
same,Plant response rating,"[6]; Postemergence, 62 g ai/ha",50
same,Plant response rating,"[6]; Postemergence, 125 g ai/ha",65
same,Plant response rating,"[6]; Postemergence, 250 g ai/ha",65
same,Plant response rating,"[6]; Preemergence, 62 g ai/ha",100
same,Plant response rating,"[6]; Preemergence, 125 g ai/ha",100
same,Plant response rating,"[6]; Preemergence, 250 g ai/ha",100
same,plant injury at 31 g/ha,[7]; [8],0%
same,plant injury at 62 g/ha,"[7]; post-emergence, Postemergence",5%
same,plant injury at 125 g/ha,"[7]; post-emergence, Postemergence",5%
same,plant injury at 250 g/ha,"[7]; post-emergence, Postemergence",5%
same,plant injury at 62 g/ha,"[7]; pre-emergence, Preemergence",5%
same,plant injury at 125 g/ha,"[7]; pre-emergence, Preemergence",15%
same,plant injury at 250 g/ha,"[7]; pre-emergence, Preemergence",70%
